Results reported in US20040077580A1, “Antisense modulation of PI3K P85 Expression” (priority 2000, published 2004).
Strand notation (5' to 3'): a small letter for the sugar, then the base; units joined by * are phosphorothioate-linked, units joined directly phosphodiester-linked; [ ] holds rarer units or linkages, { } end groups; capitals alone tell only the bases. e = 2'-O-(2-methoxyethyl) (MOE); [5mC] = 5-methylcytosine; d = 2'-deoxy (DNA)

Each substance was assayed on human PI3K p85 RNA (assay: Inhibition of human PI3K p85 mRNA levels by antisense oligonucleotides, real-time quantitative PCR). Conditions: chimeric phosphorothioate oligonucleotides with 2′-MOE wings and deoxy gap, oligonucleotide 150 nM, averaged from two experiments.
Assay type: cell-based
Method: Cells were harvested 16 hours after oligonucleotide treatment.
Poly(A)+ mRNA was isolated according to Miura et al., Clin. Chem., 1996, 42, 1758-1764. Other methods for poly(A)+ mRNA isolation are taught in, for example, Ausubel, F. M. et al., Current Protocols in Molecular Biology, Volume 1, pp. 4.5.1-4.5.3, John Wiley & Sons, Inc., 1993. […] 60 μL lysis buffer (10 mM Tris-HCl, pH 7.6, 1 mM EDTA, 0.5 M NaCl, 0.5% NP-40, 20 mM vanadyl-ribonucleoside complex) was added to each well, the plate was gently agitated and then incubated at room temperature for five minutes. 55 μL of lysate was transferred to Oligo d(T) coated 96-well plates (AGCT Inc., Irvine Calif.). Plates were incubated for 60 minutes at room temperature, washed 3 times with 200 μL of wash buffer (10 mM Tris-HCl pH 7.6, 1 mM EDTA, 0.3 M NaCl). After the final wash, the plate was blotted on paper towels to remove excess wash buffer and then air-dried for 5 minutes. 60 μL of elution buffer (5 mM Tris-HCl pH 7.6), preheated to 70° C. was added to each well, the plate was incubated on a 90° C. hot plate for 5 minutes, and the eluate was then transferred to a fresh 96-well plate.
PI3K p85 probes and primers were designed to hybridize to the human PI3K p85 sequence, using published sequence information (GenBank accession number M61906, incorporated herein as SEQ ID NO: 1).
Target sites are indicated by nucleotide numbers, as given in the sequence source reference (Genbank accession no. M61906), to which the oligonucleotide binds. All compounds in Table 1 are oligodeoxynucleotides with phosphorothioate backbones (internucleoside linkages) throughout. […] Data are averages from two experiments. If present, “N.D.” indicates “no data”.
In accordance with the present invention, a second series of oligonucleotides targeted to human PI3K p85 were synthesized. Target sites are indicated by nucleotide numbers, as given in the sequence source reference (Genbank accession no. M61906), to which the oligonucleotide binds.
Cytidine residues in the 2′-MOE wings are 5-methylcytidines.
Data were obtained by real-time quantitative PCR as described in other examples herein and are averaged from two experiments. If present, “N.D.” indicates “no data”.
For “28023 (antisense eG*e[5mC]*eT*eT*dG*dA*dA*dG*dA*dA*dA*dT*dG*dT*eT*eT*eT*eA) [compound 28023]”, the “% Inhibition of PI3K p85 mRNA levels” value was 43%.
For “28040 (antisense e[5mC]*e[5mC]*eT*eG*dT*dT*dT*dA*dC*dT*dG*dC*dT*dC*eT*e[5mC]*e[5mC]*e[5mC]) [compound 28040]”, the “% Inhibition of PI3K p85 mRNA levels” value was 0%.
With “28052 (antisense eA*eT*eT*e[5mC]*dT*dC*dC*dC*dA*dA*dA*dG*dC*dG*eT*e[5mC]*e[5mC]*e[5mC]) [compound 28052]” the “% Inhibition of PI3K p85 mRNA levels” value was 55%.
For “28022 (antisense eA*eT*eT*eT*dC*dA*dC*dT*dG*dT*dA*dA*dA*dC*eG*eG*e[5mC]*eT) [compound 28022]”, the “% Inhibition of PI3K p85 mRNA levels” value was 69%.
For “28044 (antisense eA*e[5mC]*eA*eT*dT*dG*dA*dG*dG*dG*dA*dG*dT*dC*eG*eT*eT*eG) [compound 28044]”, the “% Inhibition of PI3K p85 mRNA levels” value was 0%.
“28055 (antisense eA*eA*e[5mC]*eT*dG*dA*dA*dA*dT*dA*dA*dC*dA*dA*e[5mC]*eT*eT*eA) [compound 28055]” was tested, and the “% Inhibition of PI3K p85 mRNA levels” value was 14%.
In the case of “28047 (antisense eA*eA*eA*eG*dA*dA*dG*dG*dG*dA*dT*dA*dA*dG*e[5mC]*eA*e[5mC]*eT) [compound 28047]”, the “% Inhibition of PI3K p85 mRNA levels” value is reported as 18%.
For “28026 (antisense eA*eG*eT*eA*dG*dG*dT*dT*dT*dT*dG*dG*dT*dG*eG*eT*eT*eT) [compound 28026]”, the “% Inhibition of PI3K p85 mRNA levels” value was 54%.
For “28039 (antisense e[5mC]*eT*eT*eT*dG*dT*dT*dT*dC*dG*dG*dT*dT*dG*e[5mC]*eT*eG*e[5mC]) [compound 28039]”, the “% Inhibition of PI3K p85 mRNA levels” value was 46%.
For “28043 (antisense eA*eA*eA*eG*dC*dC*dA*dT*dA*dG*dC*dC*dA*dG*eT*eT*eG*e[5mC]) [compound 28043]”, the “% Inhibition of PI3K p85 mRNA levels” value was 10%.
“28032 (antisense eT*eT*eT*e[5mC]*dT*dC*dA*dT*dT*dG*dC*dC*dT*dT*e[5mC]*eA*e[5mC]*eG) [compound 28032]” was tested, and the “% Inhibition of PI3K p85 mRNA levels” value was 35%.
“28033 (antisense eA*eT*e[5mC]*e[5mC]*dT*dT*dT*dG*dT*dA*dT*dT*dT*dC*eT*eT*eT*e[5mC]) [compound 28033]” was tested, and the “% Inhibition of PI3K p85 mRNA levels” value was 46%.
For “28019 (antisense eT*eT*e[5mC]*eA*dA*dT*dG*dG*dC*dT*dT*dC*dC*dA*e[5mC]*eG*eA*eG) [compound 28019]”, the “% Inhibition of PI3K p85 mRNA levels” value was 6%.
“28046 (antisense eA*eT*e[5mC]*eA*dG*dA*dC*dT*dG*dG*dA*dG*dA*dG*eG*eA*eG*e[5mC]) [compound 28046]” was tested, and the “% Inhibition of PI3K p85 mRNA levels” value was 32%.
“28054 (antisense e[5mC]*e[5mC]*eT*eT*dC*dA*dG*dC*dA*dA*dA*dA*dC*dA*eA*eA*eA*e[5mC]) [compound 28054]” was tested, and the “% Inhibition of PI3K p85 mRNA levels” value was 0%.
For “28034 (antisense eT*eT*e[5mC]*eA*dA*dG*dT*dC*dT*dT*dC*dT*dT*dC*e[5mC]*eA*eA*eT) [compound 28034]”, the “% Inhibition of PI3K p85 mRNA levels” value was 28%.
“28031 (antisense e[5mC]*e[5mC]*eG*e[5mC]*dT*dC*dT*dT*dG*dG*dG*dT*dC*dT*eG*eG*e[5mC]*eA) [compound 28031]” was tested, and the “% Inhibition of PI3K p85 mRNA levels” value was 15%.
In the case of “28041 (antisense e[5mC]*e[5mC]*eA*e[5mC]*dC*dA*dC*dT*dA*dC*dA*dG*dA*dG*e[5mC]*eA*eG*eG) [compound 28041]”, the “% Inhibition of PI3K p85 mRNA levels” value is reported as 38%.
For “28048 (antisense e[5mC]*eT*eG*e[5mC]*dC*dT*dC*dT*dC*dT*dC*dT*dC*dC*eT*e[5mC]*e[5mC]*eG) [compound 28048]”, the “% Inhibition of PI3K p85 mRNA levels” value was 0%.
“28018 (antisense eG*e[5mC]*eT*eT*dC*dC*dT*dG*dT*dC*dC*dA*dT*dC*eA*e[5mC]*eT*eG) [compound 28018]” was tested, and the “% Inhibition of PI3K p85 mRNA levels” value was 47%.

Same assay, conditions: phosphorothioate oligodeoxynucleotides, oligonucleotide 150 nM, averages from two experiments
In the case of “28001 (antisense CCACCACTACAGAGCAGG; DNA, all phosphorothioate, methylation of C not given here) [compound 28001]”, the “% Inhibition of PI3K p85 mRNA levels” value is reported as 0%.
“28005 (antisense GCCCTTTGCTTTCCAGAG; DNA, all phosphorothioate, methylation of C not given here) [compound 28005]” was tested, and the “% Inhibition of PI3K p85 mRNA levels” value was 0%.
For “28013 (antisense TTCTGGCACTTTCTATGA; DNA, all phosphorothioate, methylation of C not given here) [compound 28013]”, the “% Inhibition of PI3K p85 mRNA levels” value was 28%.
With “27997 (antisense TTGCCCAACCACTCGTTC; DNA, all phosphorothioate, methylation of C not given here) [compound 27997]” the “% Inhibition of PI3K p85 mRNA levels” value was 55%.
With “27988 (antisense ATTCAGCATTTTGTAAGG; DNA, all phosphorothioate, methylation of C not given here) [compound 27988]” the “% Inhibition of PI3K p85 mRNA levels” value was 1%.
“28012 (antisense ATTCTCCCAAAGCGTCCC; DNA, all phosphorothioate, methylation of C not given here) [compound 28012]” was tested, and the “% Inhibition of PI3K p85 mRNA levels” value was 19%.
“27989 (antisense ACCACAGAACTGAAGGTT; DNA, all phosphorothioate, methylation of C not given here) [compound 27989]” was tested, and the “% Inhibition of PI3K p85 mRNA levels” value was 0%.
In the case of “28006 (antisense ATCAGACTGGAGAGGAGC; DNA, all phosphorothioate, methylation of C not given here) [compound 28006]”, the “% Inhibition of PI3K p85 mRNA levels” value is reported as 27%.
With “28015 (antisense AACTGAAATAACAACTTA; DNA, all phosphorothioate, methylation of C not given here) [compound 28015]” the “% Inhibition of PI3K p85 mRNA levels” value was 6%.
With “28000 (antisense CCTGTTTACTGCTCTCCC; DNA, all phosphorothioate, methylation of C not given here) [compound 28000]” the “% Inhibition of PI3K p85 mRNA levels” value was 20%.
With “27981 (antisense GTAAGTCCAGGAGATAGC; DNA, all phosphorothioate, methylation of C not given here) [compound 27981]” the “% Inhibition of PI3K p85 mRNA levels” value was 14%.
“27984 (antisense GGCTGCTGAGAATCTGAA; DNA, all phosphorothioate, methylation of C not given here) [compound 27984]” was tested, and the “% Inhibition of PI3K p85 mRNA levels” value was 22%.
In the case of “27977 (antisense ATCTTCTTCTCTTTCCTT; DNA, all phosphorothioate, methylation of C not given here) [compound 27977]”, the “% Inhibition of PI3K p85 mRNA levels” value is reported as 0%.
With “28016 (antisense CCAACAAAACAGTCCAAA; DNA, all phosphorothioate, methylation of C not given here) [compound 28016]” the “% Inhibition of PI3K p85 mRNA levels” value was 6%.
In the case of “27999 (antisense CTTTGTTTCGGTTGCTGC; DNA, all phosphorothioate, methylation of C not given here) [compound 27999]”, the “% Inhibition of PI3K p85 mRNA levels” value is reported as 36%.
With “27998 (antisense GTCTTCAGTGTTTTCATT; DNA, all phosphorothioate, methylation of C not given here) [compound 27998]” the “% Inhibition of PI3K p85 mRNA levels” value was 0%.
